{
  "source": "patent US20060111388A1",
  "about": "“Phenanthroline and derivatives thereof used to lower intraocular pressure in an affected eye” (University of North Texas Health Science Center at Fort …, priority 2004, published 2006)",
  "key": {"[1]": {"system": "Morrison rat model eye with elevated intraocular pressure", "assay": "Morrison rat model for glaucoma, IOP by tonometer after topical application", "assay_type": "in vivo", "excerpt": "The Intraocular Pressure (“IOP”) in a rat eye was lowered following treatment of the eye with about a 1% (w/v) phenanthroline solution. Briefly, the IOP was elevated in one eye for rats grouped as specified below by using the method as described by Morrison et al (1997). […] The other eyes was used as a control. Rats were housed post-surgically in constant low light (<90 lux) to minimize effects of circadian influences on IOP. Five rats were used per treatment group.\nA solution of 1,7-phenanthroline was prepared by dissolving 10 mg of 1,7-phenanthroline in 32 μl methanol (100%) forming a concentrated 1,7-phenanthroline solution. About 3 μl of the concentrated 1,7-phenanthroline solution was then added to 96 μl of saline (0.9% NaCl) to form a working 1,7-phenanthroline solution. The working 1,7-phenanthroline solution was then used in the eye of the Morrison Model of Glaucoma. The average intraocular pressure (IOP) in Morrison model eye was 26.22 (average of nine readings) prior to application of the working 1,7-phenanthroline solution. In contrast, the IOP measured 6 hr after application of the working 1,7-phenanthroline solution dropped to 25.66, as shown in FIG. 6A.\n(§1) A solution of 4,7-dihydroxy-1,10-phenanthroline was prepared by dissolving 7 mg of 4,7-dihydroxy-1,10-phenanthroline in 22 μl methanol, 30 μl 1 N NaOH, and 626 μl of saline (0.9% NaCl) forming a 4,7-dihydroxy-1,10-phenanthroline solution having a pH of about 10.42. […] The 4,7-dihydroxy-1,10-phenanthroline solution was centrifuged at 10,000×g for about 5 min to remove the precipitate. The clear supernatant was removed and used for testing the Morrison model eye. The average intraocular pressure (IOP) in the eye with elevated pressure was 27.77 (average of nine readings) prior to application of the drug.\n(§2) A solution of 1,10-phenanthroline 5,6-dione was prepared by dissolving 7 mg of 1,10-phenanthroline 5,6-dione in 44 μl methanol, and 88 μl dimethylsulfoxide (DMSO). […] The 1,10-phenanthroline 5,6-dione solution with precipitate was centrifuged at 10,000×g for 5 min, and the clear supernatant was removed. 6 μl of the supernatant plus 97 μl of saline formed the working solution used in the Morison model of glaucoma. The average intraocular pressure (IOP) in eye with elevated pressure was 27.66 (average of nine readings) prior to application of the drug."}, "[2]": {"assay": "Solubility observed while preparing the test solution", "assay_type": "physicochemical", "protocol": "as §1, §2"}, "patients": {"system": "patients", "details": "patients treated with latanoprost; cited from earlier work"}, "thermolysin": {"biological_target": "T1, thermolysin (Bacillus thermoproteolyticus, UniProt P00800)", "T1 sequence (P00800 233-548)": "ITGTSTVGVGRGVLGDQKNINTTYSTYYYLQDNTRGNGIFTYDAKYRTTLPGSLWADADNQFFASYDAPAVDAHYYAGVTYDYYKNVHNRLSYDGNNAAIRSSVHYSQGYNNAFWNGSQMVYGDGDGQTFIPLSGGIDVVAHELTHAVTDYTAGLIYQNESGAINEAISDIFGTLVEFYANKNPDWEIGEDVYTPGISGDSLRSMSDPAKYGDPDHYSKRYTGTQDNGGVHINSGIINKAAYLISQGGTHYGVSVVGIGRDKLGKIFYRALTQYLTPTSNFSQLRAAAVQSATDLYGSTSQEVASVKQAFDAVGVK", "details": "reversible inhibitor; cited from earlier work"}},
  "data": [
    {"smiles": "c1cnc2c(c1)ccc1ncccc12", "note": "[1,7-phenanthroline]", "values": [
      {"measurement": "IOP measured 6 hr after application (FIG. 6A)", "setting": "[1]; working solution: 10 mg in 32 μl methanol, 3 μl added to 96 μl saline, average IOP 26.22 (nine readings) prior to application", "value": 25.66}
    ]},
    {"smiles": "O=C1C(=O)c2cccnc2-c2ncccc21", "note": "[1,10-phenanthroline 5,6-dione]", "values": [
      {"measurement": "IOP measured 6 hr after application (FIG. 6C)", "setting": "[1]; 6 μl supernatant (7 mg in 44 μl methanol, 88 μl DMSO) plus 97 μl saline, average IOP 27.66 (nine readings) prior to application", "value": 25.44},
      {"measurement": "solubility in methanol and DMSO", "setting": "[2]; 7 mg in 44 μl methanol and 88 μl dimethylsulfoxide", "value": "the entire drug was not solubilized"}
    ]},
    {"smiles": "Oc1ccnc2c1ccc1c(O)ccnc12", "note": "[4,7-dihydroxy-1,10-phenanthroline]", "values": [
      {"measurement": "IOP measured 6 hr after application (FIG. 6B)", "setting": "[1]; clear supernatant of 7 mg in 22 μl methanol, 30 μl 1 N NaOH, 626 μl saline, adjusted to pH 7.7, average IOP 27.77 (nine readings) prior to application", "value": 26.22},
      {"measurement": "solubility on adjusting solution from pH about 10.42 to pH 7.7", "setting": "[2]; 7 mg in 22 μl methanol, 30 μl 1 N NaOH, 626 μl saline, 1N HCl", "value": "some precipitation of the drug"}
    ]},
    {"smiles": "CC(C)OC(=O)CCC/C=C\\C[C@@H]1[C@@H](CC[C@@H](O)CCc2ccccc2)[C@H](O)C[C@@H]1O", "note": "[latanoprost, Latanoprost]", "values": [
      {"measurement": "increased iris pigmentation, share of patients", "setting": "patients", "value": "up to one in six"}
    ]},
    {"smiles": "c1cnc2c(c1)ccc1cccnc12", "note": "[phenanthroline, 1,10-phenanthroline]", "values": [
      {"measurement": "intraocular pressure (FIG. 4)", "setting": "[1]; 1% (w/v) in saline, 20-25 μl topically once, 22 and 27 days following surgery, cohort 2-4-04, IOP measured after 1 hour and 6 hours", "value": "decreased"},
      {"measurement": "intraocular pressure (FIG. 5)", "setting": "[1]; 1% phenanthroline, 27 days following surgery, ID#1-17-48 in cohort 2-4-04", "value": "decreased"},
      {"measurement": "Ki", "setting": "thermolysin", "value": 40, "unit": "µM"}
    ]}
  ]
}
